# Source: PubChem BioAssay AID1918954 (Molecular Pharmacology Branch, DTP, NCI, 2023)
# System: MDA-MB-468 complex spheroids with HUVEC/MSC, viability
# Experiment: Anticancer human tumor MDA-MB-468 cell line growth inhibition;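 also: spheroids exposed to agents for seven days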;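 as to viability, T/C: 100% = DMSO vehicle control viability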
# Details: for IC50: curve of first compound; for viability, T/C: stronger effect = lower value
# In short: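 Complex spheroids of tumor cells with HUVEC and human MSCs, exposed to iadademstat combined with other agents. Each agent tested in half-log steps from near clinical Cmax (else 10 microM top), DMSO ≤0.25%.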
# [1] = second compound 0.1 µM, first compound 0.00949 µM
# [2] = second compound 0.1 µM, first compound 0.03 µM
# [3] = second compound 0.1 µM, first compound 0.0949 µM
# [4] = second compound 0.1 µM, first compound 0.3 µM
# [5] = second compound 0.316 µM, first compound 0.00949 µM
# [6] = second compound 0.316 µM, first compound 0.03 µM
# [7] = second compound 0.316 µM, first compound 0.0949 µM
# [8] = second compound 0.316 µM, first compound 0.3 µM
# [9] = second compound 1 µM, first compound 0.00949 µM
# [10] = second compound 1 µM, first compound 0.03 µM
# [11] = second compound 1 µM, first compound 0.0949 µM
# [12] = second compound 1 µM, first compound 0.3 µM
# [13] = second compound 3.16 µM, first compound 0.00949 µM
# [14] = second compound 3.16 µM, first compound 0.03 µM
# [15] = second compound 3.16 µM, first compound 0.0949 µM
# [16] = second compound 3.16 µM, first compound 0.3 µM
# [17] = second compound 10 µM, first compound 0.00949 µM
# [18] = second compound 10 µM, first compound 0.03 µM
# [19] = second compound 10 µM, first compound 0.0949 µM
# [20] = second compound 10 µM, first compound 0.3 µM
smiles,measurement,setting,value
CCc1c2c(nc3ccc(O)cc13)-c1cc3c(c(=O)n1C2)COC(=O)[C@]3(O)CC + NC1CC1c1ccc(-c2cccc(O)c2)cc1,IC50,second compound 0.1 µM,< 0.949 nM
same,IC50,second compound 0.316 µM,< 0.949 nM
same,IC50,second compound 1 µM,< 0.949 nM
same,IC50,second compound 3.16 µM,< 0.949 nM
same,IC50,second compound 10 µM,< 0.949 nM
same,"viability, T/C","second compound 0.1 µM, first compound 0.000949 µM",4.36%
same,"viability, T/C","second compound 0.1 µM, first compound 0.003 µM",3.78%
same,"viability, T/C",[1],2.14%
same,"viability, T/C",[2],0.44%
same,"viability, T/C",[3],0.43%
same,"viability, T/C",[4],0.53%
same,"viability, T/C","second compound 0.316 µM, first compound 0.000949 µM",4.17%
same,"viability, T/C","second compound 0.316 µM, first compound 0.003 µM",3.69%
same,"viability, T/C",[5],1.95%
same,"viability, T/C",[6],0.43%
same,"viability, T/C",[7],0.4%
same,"viability, T/C",[8],0.49%
same,"viability, T/C","second compound 1 µM, first compound 0.000949 µM",3.6%
same,"viability, T/C","second compound 1 µM, first compound 0.003 µM",3.54%
same,"viability, T/C",[9],2.31%
same,"viability, T/C",[10],0.52%
same,"viability, T/C",[11],0.36%
same,"viability, T/C",[12],0.52%
same,"viability, T/C","second compound 3.16 µM, first compound 0.000949 µM",4.14%
same,"viability, T/C","second compound 3.16 µM, first compound 0.003 µM",3.66%
same,"viability, T/C",[13],2.43%
same,"viability, T/C",[14],0.36%
same,"viability, T/C",[15],0.43%
same,"viability, T/C",[16],0.47%
same,"viability, T/C","second compound 10 µM, first compound 0.000949 µM",4.14%
same,"viability, T/C","second compound 10 µM, first compound 0.003 µM",3.24%
same,"viability, T/C",[17],2.07%
same,"viability, T/C",[18],0.38%
same,"viability, T/C",[19],0.56%
same,"viability, T/C",[20],0.6%
Nc1ccccc1NC(=O)c1ccc(CNC(=O)OCc2cccnc2)cc1 + NC1CC1c1ccc(-c2cccc(O)c2)cc1,IC50,second compound 0.1 µM,66.3 nM
same,IC50,second compound 0.316 µM,61.8 nM
same,IC50,second compound 1 µM,56.8 nM
same,IC50,second compound 3.16 µM,60.5 nM
same,IC50,second compound 10 µM,48.2 nM
same,"viability, T/C",[1],101%
same,"viability, T/C",[2],90.5%
same,"viability, T/C",[3],31.8%
same,"viability, T/C",[4],2.33%
same,"viability, T/C","second compound 0.1 µM, first compound 0.949 µM",0.21%
same,"viability, T/C","second compound 0.1 µM, first compound 3 µM",0.17%
same,"viability, T/C",[5],90.7%
same,"viability, T/C",[6],86.1%
same,"viability, T/C",[7],28.6%
same,"viability, T/C",[8],2.63%
same,"viability, T/C","second compound 0.316 µM, first compound 0.949 µM",0.2%
same,"viability, T/C","second compound 0.316 µM, first compound 3 µM",0.15%
same,"viability, T/C",[9],108%
same,"viability, T/C",[10],78.6%
same,"viability, T/C",[11],27.5%
same,"viability, T/C",[12],2.4%
same,"viability, T/C","second compound 1 µM, first compound 0.949 µM",0.19%
same,"viability, T/C","second compound 1 µM, first compound 3 µM",0.13%
same,"viability, T/C",[13],92%
same,"viability, T/C",[14],88%
same,"viability, T/C",[15],25.7%
same,"viability, T/C",[16],2.56%
same,"viability, T/C","second compound 3.16 µM, first compound 0.949 µM",0.16%
same,"viability, T/C","second compound 3.16 µM, first compound 3 µM",0.14%
same,"viability, T/C",[17],72.1%
same,"viability, T/C",[18],68.1%
same,"viability, T/C",[19],24.5%
same,"viability, T/C",[20],2.72%
same,"viability, T/C","second compound 10 µM, first compound 0.949 µM",0.24%
same,"viability, T/C","second compound 10 µM, first compound 3 µM",0.2%
O=C(c1cc(Cc2n[nH]c(=O)c3ccccc23)ccc1F)N1CCN(C(=O)C2CC2)CC1 + NC1CC1c1ccc(-c2cccc(O)c2)cc1,IC50,second compound 0.1 µM,909 nM
same,IC50,second compound 0.316 µM,840 nM
same,IC50,second compound 1 µM,645 nM
same,IC50,second compound 3.16 µM,677 nM
same,IC50,second compound 10 µM,144 nM
same,"viability, T/C","second compound 0.1 µM, first compound 0.0316 µM",93.6%
same,"viability, T/C","second compound 0.1 µM, first compound 0.1 µM",88.1%
same,"viability, T/C","second compound 0.1 µM, first compound 0.316 µM",70.5%
same,"viability, T/C","second compound 0.1 µM, first compound 1 µM",52.7%
same,"viability, T/C","second compound 0.1 µM, first compound 3.16 µM",18.6%
same,"viability, T/C","second compound 0.1 µM, first compound 10 µM",14.2%
same,"viability, T/C","second compound 0.316 µM, first compound 0.0316 µM",88.6%
same,"viability, T/C","second compound 0.316 µM, first compound 0.1 µM",88.2%
same,"viability, T/C","second compound 0.316 µM, first compound 0.316 µM",76%
same,"viability, T/C","second compound 0.316 µM, first compound 1 µM",46.2%
same,"viability, T/C","second compound 0.316 µM, first compound 3.16 µM",16.2%
same,"viability, T/C","second compound 0.316 µM, first compound 10 µM",11.9%
same,"viability, T/C","second compound 1 µM, first compound 0.0316 µM",98.2%
same,"viability, T/C","second compound 1 µM, first compound 0.1 µM",82.3%
same,"viability, T/C","second compound 1 µM, first compound 0.316 µM",66.7%
same,"viability, T/C","second compound 1 µM, first compound 1 µM",43.4%
same,"viability, T/C","second compound 1 µM, first compound 3.16 µM",13.9%
same,"viability, T/C","second compound 1 µM, first compound 10 µM",8.61%
same,"viability, T/C","second compound 3.16 µM, first compound 0.0316 µM",82%
same,"viability, T/C","second compound 3.16 µM, first compound 0.1 µM",75.4%
same,"viability, T/C","second compound 3.16 µM, first compound 0.316 µM",72.5%
same,"viability, T/C","second compound 3.16 µM, first compound 1 µM",38.7%
same,"viability, T/C","second compound 3.16 µM, first compound 3.16 µM",12.5%
same,"viability, T/C","second compound 3.16 µM, first compound 10 µM",7.33%
same,"viability, T/C","second compound 10 µM, first compound 0.0316 µM",63%
same,"viability, T/C","second compound 10 µM, first compound 0.1 µM",51.4%
same,"viability, T/C","second compound 10 µM, first compound 0.316 µM",43.6%
same,"viability, T/C","second compound 10 µM, first compound 1 µM",26.6%
same,"viability, T/C","second compound 10 µM, first compound 3.16 µM",13.8%
same,"viability, T/C","second compound 10 µM, first compound 10 µM",8.66%
